According to article PMC6687188, “Novel lactate dehydrogenase inhibitors with in vivo efficacy against Cryptosporidium parvum” (PLoS Pathogens, 2019):
Read-outs that look alike come from different tables or passages of the source.

Columns and labels:
[1] = biological target: T1, recombinant CpLDH protein (Cryptosporidium parvum, UniProt Q9GT92, F198L/K295E/R251K); details: cited from earlier work
[2] = biological target: T1, recombinant CpLDH protein; details: value in parentheses; ref Zhang et al., 2015 [11]; cited from earlier work
[3] = biological target: T1, recombinant CpLDH protein; details: for Km: pyruvate/NADH: reduction reaction pH 7.5, lactate/NAD+: oxidation reaction pH 9.2, 25°C; for Kcat / Vmax: pyruvate/NADH: reduction reaction, lactate/NAD+: oxidation reaction
Experimental: The coding sequence of CpLDH was cloned from cDNA prepared from the AUCP-1 isolate of C. parvum, and the His-tagged CpLDH recombinant protein expressed in Escherichia coli, and purified in native form essentially as previously described. Briefly, cDNA was prepared from total RNA extracted from the AUCP-1 isolate of C. parvum, and the coding sequence of CpLDH (Genebank accession number AF274310.1) was PCR-amplified from the cDNA using the primer pair 5’-[…]-3’ (Forward, with the XhoI restriction site italicized and start codon in bold) and 5’-[…]-3’ (Reverse, with the BamHI site italicized and stop codon in bold). The PCR amplicon was cloned at the XhoI/BamHI site of the pET15b expression vector in-frame with the hexahistidine (His-tag) at the N-terminal and sequenced to confirm identity. The recombinant expression vector was transformed into protein expression E. coli BL21-CodonPlus-DE3-RIL (Stratagene). Transformed E. coli was cultured at 37°C in Luria broth medium (supplemented with 100 μg/ml ampicillin and 34 μg/ml chloramphenicol) to an A600 of 0.8 followed by addition of 1 mM isopropyl-β-D-thiogalactopyranoside to induce protein expression. The expression E. coli was harvested and lysed under native conditions by sonicating in lysis buffer (50 mM NaH2PO4, 300 mM NaCl, 10 mM Imidazole, pH 8.0) containing a 1x EDTA-free protease inhibitor cocktail, 600 units benzonase and 30 kU lysozyme (EMD Millipore). The lysate was clarified by centrifugation and the His-tagged recombinant protein purified under native conditions by nickel-affinity chromatography according to the manufacturer's instructions (Novagen). The wash buffer used contained 50 mM NaH2PO4, 300 mM NaCl and 20 mM Imidazole, pH 8.0, while the elution buffer was composed of 50 mM NaH2PO4, 300 mM NaCl, 250 mM Imidazole, pH 8.0. The eluate was dialyzed using a buffer containing 5 mM Hepes–KOH (pH 7.8) and 0.5 mM DTT. The purity of the recombinant protein was determined by SDS/PAGE, and the concentration measured using a Qubit 3.0 fluorometer (Life technologies). […] On the other hand, the catalytic activity of CpLDH recombinant protein for the oxidation of lactate to pyruvate was determined by measuring the change in optical density of a 100 μl reaction mixture containing 100 mM lactate, 1 mM NAD^+, 100 mM Tris, pH 9.2, with varying concentrations of CpLDH recombinant protein at 25°C. […] In all assays, reaction mixtures without recombinant CpLDH protein were included as negative controls. All assays were performed in triplicate and repeated at least thrice. The change in optical density was measured every 15 seconds for a total of 2 minutes using a Spectra Max 384 Plus plate reader (Molecular Devices) at a wave length of 340 nm.

[4] = Compound cytotoxicity assay (WST-1 cell proliferation reagent); details: human
Experimental: (§1) A colorimetric assay using the cell proliferation reagent WST-1 (Roche, USA) for the quantification of cell viability was performed. […] When the cells were confluent, the old medium was replaced with fresh medium with or without varying concentrations of chemical compound. After 24 h of culture, 10 μl of the cell proliferation reagent WST-1, (for quantification of cell viability) was added to each well, mixed and the plates incubated for 1 h at 37 C with 5% CO2 in the dark. […] Three independent assays were performed and the dose–response curves of the means of triplicate assays were generated using GraphPad PRISM software to derive the half maximal inhibitory concentration (IC50) of compounds in HCT-8 cells.

HCT-8 cells = assay: as above
Experimental: as §1

[5] = biological target: T1, recombinant CpLDH protein

Structure (SMILES): CCCc1c(O)c(O)c(C(=O)O)c2cc(Cc3ccccc3)c(C)cc12 [FX11]
- enzymatic activity of CpLDH (in words) [1]: able to inhibit

Structure (SMILES): CC(O)C(=O)O (stereo not drawn) [Lactate, lactate]
- Kcat [2]: 0.66 s⁻¹
- Km [2]: 10800 µM
- Vmax [2]: 0.53 nmol⁻¹ µg⁻¹ min⁻¹
- Km [3]: 39600 µM
- Kcat [3]: 0.07 s⁻¹
- Vmax [3]: 0.04 nmol⁻¹ µg⁻¹ min⁻¹

Structure (SMILES): NC(=O)C1=CN([C@@H]2O[C@H](COP(=O)(O)OP(=O)(O)OC[C@H]3O[C@@H](n4cnc5c(N)ncnc54)[C@H](O)[C@@H]3O)[C@@H](O)[C@H]2O)C=CC1 [NADH]
- Km [3]: 734 µM
- Vmax [3]: 6.29 nmol⁻¹ µg⁻¹ min⁻¹

Structure (SMILES): NC(=O)c1ccc[n+]([C@@H]2O[C@H](COP(=O)([O-])OP(=O)(O)OC[C@H]3O[C@@H](n4cnc5c(N)ncnc54)[C@H](O)[C@@H]3O)[C@@H](O)[C@H]2O)c1 [NAD^+]
- Kcat [2]: 0.70 s⁻¹
- Km [2]: 62 µM
- Vmax [2]: 0.56 nmol⁻¹ µg⁻¹ min⁻¹
- Km [3]: 56 µM
- Kcat [3]: 0.11 s⁻¹
- Vmax [3]: 0.07 nmol⁻¹ µg⁻¹ min⁻¹

Structure (SMILES): CN(C)C(=S)SSC(=S)N(C)C [NSC1771]
- IC50 at 24 h [4]: 110 µM

Structure (SMILES): CC1=C(CCC(=O)O)c2cc3nc(cc4[nH]c(cc4C)cc4[nH]c(cc1n2)cc4C)C(C)=C3CCC(=O)O [NSC18298]
- IC50 (HCT-8 cells): 81.9 µM
- MEAN CpLDH INHIBITION (%) [5]: 53.86%

Structure (SMILES): O=C(O)[C@@H]1[C@H](C(=O)O)[C@]2(Cl)C(Cl)=C(Cl)[C@@]1(Cl)C2(Cl)Cl [NSC22225]
- IC50 (HCT-8 cells): 96.8 µM
- effect on catalytic activity of recombinant CpLDH (in words) [5]: significantly (P < 0.05) inhibited

Structure (SMILES): O=c1oc2cc(O)ccc2c2oc3cc(O)ccc3c12 [NSC22842]
- IC50 (HCT-8 cells): 83.5 µM
- MEAN CpLDH INHIBITION (%) [5]: 3.48%

Structure (SMILES): CC(=O)Nc1ccc(-c2nc3ccccc3s2)cc1 [NSC33006]
- IC50 (HCT-8 cells): 87.3 µM
- MEAN CpLDH INHIBITION (%) [5]: 13.74%

Structure (SMILES): O=S(=O)([O-])c1cc(N=Nc2cc(S(=O)(=O)[O-])c3ccccc3c2O)ccc1/C=C/c1ccc(N=Nc2cc(S(=O)(=O)[O-])c3ccccc3c2O)cc1S(=O)(=O)[O-].[Na+].[Na+].[Na+].[Na+] [NSC34931]
- IC50 (HCT-8 cells): 71.1 µM
- MEAN CpLDH INHIBITION (%) [5]: 43.74%

Structure (SMILES): O=S(=O)(O)c1cc(N=[N+]([O-])c2cc(S(=O)(=O)O)c3ccccc3c2)cc2ccccc12 [NSC37031]
- IC50 (HCT-8 cells): 333 µM
- effect on catalytic activity of recombinant CpLDH (in words) [5]: significantly (P < 0.05) inhibited

Structure (SMILES): [Cl][Cd][Cl] [NSC51148]
- IC50 (HCT-8 cells): 39.6 µM
- MEAN CpLDH INHIBITION (%) [5]: 64.58%

Structure (SMILES): Cc1cc2c(C(C)C)c(O)c(O)c(C=O)c2c(O)c1-c1c(C)cc2c(C(C)C)c(O)c(O)c(C=O)c2c1O [NSC56817]
- IC50 at 24 h [4]: 64.2 µM

Structure (SMILES): N#CCCN(CCC#N)Cc1cc(O)c(CN(CCC#N)CCC#N)cc1O [NSC70925]
- IC50 (HCT-8 cells): 142 µM
- MEAN CpLDH INHIBITION (%) [5]: 68.17%

Structure (SMILES): Cc1cc2c(c3oc(C4(C)OC4C4OC4C)cc(=O)c13)C(=O)c1c(O)c(C3CC(C)(N(C)C)C(O)C(C)O3)cc(C3CC(N(C)C)C(O)C(C)O3)c1C2=O (stereo not drawn) [NSC70929]
- IC50 (HCT-8 cells): 181 µM
- MEAN CpLDH INHIBITION (%) [5]: 13.50%

Structure (SMILES): Cc1ccc2c(sc(-c3ccc4c(c3)sc(-c3ccc(N(C)C)cc3)[n+]4C)[n+]2C)c1S(=O)(=O)[O-].[Cl-] [NSC71948]
- IC50 (HCT-8 cells): 106 µM
- MEAN CpLDH INHIBITION (%) [5]: 60.47%

Structure (SMILES): O=[N+]([O-])c1ccc2c(N=Nc3c(O)ccc4ccccc34)c(O)cc(S(=O)(=O)[O-])c2c1.[Na+] [NSC73413]
- IC50 (HCT-8 cells): 220 µM
- MEAN CpLDH INHIBITION (%) [5]: 54.98%

Structure (SMILES): Cc1cc(N(CCCl)CCCl)ccc1/C=N/NC(=O)Cc1cc(=O)oc2cc(O)ccc12 [NSC79688]
- IC50 (HCT-8 cells; read-out: CYTOTOXICITY IC50, HCT-8 cells, 24 h): 145 µM
- MEAN CpLDH INHIBITION (%) [5]: 40.15%

Structure (SMILES): O=C(CC(=O)C(F)(F)F)c1csc2ccccc12 [NSC80396]
- IC50 (HCT-8 cells): 91.9 µM
- MEAN CpLDH INHIBITION (%) [5]: -8.51%

Structure (SMILES): CCOC(C)C(C=NNC(N)=S)=NNC(N)=S (stereo not drawn) [NSC82116]
- IC50 (HCT-8 cells): 118 µM
- MEAN CpLDH INHIBITION (%) [5]: 10.05%

Structure (SMILES): O=[N+]([O-])c1cccc2c(N=Nc3ccc4ccccc4c3O)c(O)cc(S(=O)(=O)O)c12.[Na+] [NSC85561]
- IC50 (HCT-8 cells): 103 µM
- MEAN CpLDH INHIBITION (%) [5]: 73.45%

Structure (SMILES): CCOC(=O)Cc1c(C)c2cc(C(=O)c3ccccc3)c(O)cc2oc1=O [NSC115538]
- IC50 (HCT-8 cells): 158 µM
- MEAN CpLDH INHIBITION (%) [5]: 0.63%

Structure (SMILES): COc1ccc(/C=C/C(=O)Oc2cc(O)cc(O)c2)cc1 [NSC175296]
- IC50 (HCT-8 cells): 156 µM
- MEAN CpLDH INHIBITION (%) [5]: 0.00%

Structure (SMILES): O=C([CH-]C(=O)C(F)(F)F)c1ccccc1.O=C([CH-]C(=O)C(F)(F)F)c1ccccc1.O=C([CH-]C(=O)C(F)(F)F)c1ccccc1.O=C([CH-]C(=O)C(F)(F)F)c1ccccc1.[Eu+3].c1ccncc1 [NSC253995]
- IC50 (HCT-8 cells): 83 µM
- MEAN CpLDH INHIBITION (%) [5]: 25.71%

Structure (SMILES): CC(O)CCC(=O)c1ccoc1 (stereo not drawn) [NSC349438]
- IC50 (HCT-8 cells): 93.9 µM
- MEAN CpLDH INHIBITION (%) [5]: 13.12%

Structure (SMILES): O=Cc1cc([N+](=O)[O-])no1 [NSC626433]
- IC50 (HCT-8 cells): 265 µM
- MEAN CpLDH INHIBITION (%) [5]: 48.62%

Structure (SMILES): O=S(=O)(O)c1cc(N=Nc2cc(S(=O)(=O)O)c3cccnc3c2O)ccc1/C=C/c1ccc(N=Nc2cc(S(=O)(=O)O)c3cccnc3c2O)cc1S(=O)(=O)O [NSC638352]
- IC50 (HCT-8 cells): 116 µM
- MEAN CpLDH INHIBITION (%) [5]: 43.74%

Structure (SMILES): O=C1/C(=C/c2ccccc2)CN(C(=O)/C=C/c2ccccc2)C/C1=C\c1ccccc1 [NSC638634]
- IC50 (HCT-8 cells): 157 µM
- MEAN CpLDH INHIBITION (%) [5]: 0.30%

Structure (SMILES): COC(=O)C1=C(C(=O)OC)SC2(S1)C(C(=O)OC)=C(C(=O)OC)Sc1c2ssc1=O [NSC686349]
- IC50 (HCT-8 cells): 283 µM
- MEAN CpLDH INHIBITION (%) [5]: 31.74%

Structure (SMILES): CC(=O)C(=O)O [Pyruvate, pyruvate]
- Kcat [2]: 16.10 s⁻¹
- Km [2]: 427 µM
- Vmax [2]: 12.89 nmol⁻¹ µg⁻¹ min⁻¹
- Km for pyruvate lower than that for lactate [3]: at least 54 fold
- Vmax for pyruvate higher than that for lactate [3]: 123 fold
- Km [3]: 731 µM
- Kcat [3]: 8.42 s⁻¹
- Vmax [3]: 5.04 nmol⁻¹ µg⁻¹ min⁻¹

Structure (SMILES): Cc1cc2c(C(C)C)c(O)c(O)c(C=O)c2c(O)c1-c1c(C)cc2c(C(C)C)c(O)c(O)c(C=O)c2c1O [gossypol]
- enzymatic activity of CpLDH (in words) [1]: able to inhibit
